According to ChEMBL document CHEMBL5518248, “Design, Synthesis, and Biological Evaluation of Novel Arylomycins against Multidrug-Resistant Gram-Negative Bacteria” (J Med Chem, 2024):
pIC50: −log10 of the molar value.

Assays:
Escherichia coli [1] = test: Antibacterial activity against Escherichia coli ATCC 35218 assessed as inhibition of bacterial growth measured after 18 to 20 hrs by broth microdilution method; type: functional; details: time 18-20 hrs
Escherichia coli [2] = test: Antibacterial activity against Escherichia coli 14-2 assessed as inhibition of bacterial growth measured after 18 to 20 hrs by broth microdilution method; type: functional; details: time 18-20 hrs
Escherichia coli [3] = test: Antibacterial activity against Escherichia coli 14-4 assessed as inhibition of bacterial growth measured after 18 to 20 hrs by broth microdilution method; type: functional; details: time 18-20 hrs
Klebsiella pneumoniae [4] = test: Antibacterial activity against Klebsiella pneumoniae 15-1 assessed as inhibition of bacterial growth measured after 18 to 20 hrs by broth microdilution method; type: functional; details: time 18-20 hrs
Klebsiella pneumoniae [5] = test: Antibacterial activity against Klebsiella pneumoniae 15-4 assessed as inhibition of bacterial growth measured after 18 to 20 hrs by broth microdilution method; type: functional; details: time 18-20 hrs
Klebsiella pneumoniae [6] = test: Antibacterial activity against Klebsiella pneumoniae 15-5 assessed as inhibition of bacterial growth measured after 18 to 20 hrs by broth microdilution method; type: functional; details: time 18-20 hrs
Acinetobacter baumannii [7] = test: Antibacterial activity against Acinetobacter baumannii 17-2 assessed as inhibition of bacterial growth measured after 18 to 20 hrs by broth microdilution method; type: functional; details: time 18-20 hrs
Acinetobacter baumannii [8] = test: Antibacterial activity against Acinetobacter baumannii 17-8 assessed as inhibition of bacterial growth measured after 18 to 20 hrs by broth microdilution method; type: functional; details: time 18-20 hrs
Pseudomonas aeruginosa [9] = test: Antibacterial activity against Pseudomonas aeruginosa 17-1 assessed as inhibition of bacterial growth measured after 18 to 20 hrs by broth microdilution method; type: functional; details: time 18-20 hrs
Pseudomonas aeruginosa [10] = test: Antibacterial activity against Pseudomonas aeruginosa 19-5 assessed as inhibition of bacterial growth measured after 18 to 20 hrs by broth microdilution method; type: functional; details: time 18-20 hrs
HepG2 [11] = test: Cytotoxicity against human HepG2 cells assessed as inhibition of cell growth incubated for 24 hrs by CCK8 method; type: functional, cell-based; details: HepG2, 24 h
HepG2 [12] = test: Cytotoxicity against human HepG2 cells assessed as inhibition of cell growth at 100 uM incubated for 24 hrs by CCK8 method relative to control; type: functional
[13] = Cytotoxicity against HEK293T cells assessed as inhibition of cell growth incubated for 24 hrs by CCK8 method; type: toxicity, cell-based, HEK-293T; details: human
[14] = Cytotoxicity against HEK293T cells assessed as inhibition of cell growth at 100 uM incubated for 24 hrs by CCK8 method relative to control; type: toxicity, cell-based, HEK-293T; details: human
Jurkat [15] = test: Cytotoxicity against human Jurkat cells assessed as inhibition of cell growth incubated for 24 hrs by CCK8 method; type: functional, cell-based
Jurkat [16] = test: Cytotoxicity against human Jurkat cells assessed as inhibition of cell growth at 100 uM incubated for 24 hrs by CCK8 method relative to control; type: functional

| SMILES | MIC (Escherichia coli [1]) [µg/mL] | MIC (Escherichia coli [2]) [µg/mL] | MIC (Escherichia coli [3]) [µg/mL] | MIC (Klebsiella pneumoniae [4]) [µg/mL] | MIC (Klebsiella pneumoniae [5]) [µg/mL] | MIC (Klebsiella pneumoniae [6]) [µg/mL] | MIC (Acinetobacter baumannii [7]) [µg/mL] | MIC (Acinetobacter baumannii [8]) [µg/mL] | MIC (Pseudomonas aeruginosa [9]) [µg/mL] | MIC (Pseudomonas aeruginosa [10]) [µg/mL] | pIC50 (HepG2 [11]) | inhibition at 100 µM (HepG2 [12]) [%] | IC50 at 24 h [13] [µM] | inhibition at 24 h, 100 µM [14] [%] | pIC50 (Jurkat [15]) | inhibition at 100 µM (Jurkat [16]) [%] |
| --- | --- | --- | --- | --- | --- | --- | --- | --- | --- | --- | --- | --- | --- | --- | --- | --- |
| Cc1nc(-c2ccc(CSSC3CCCC3)cc2)ncc1C(=O)N[C@@H](CCN)C(=O)N(C)[C@@H]1C(=O)N[C@@H](C)C(=O)N[C@H](C(=O)NCC#N)Cc2ccc(OCCN)c(c2)-c2cc1ccc2OCCN.O=C(O)C(F)(F)F.O=C(O)C(F)(F)F.O=C(O)C(F)(F)F.O=C(O)C(F)(F)F | ≤ 0.03 | 0.125 | ≤ 0.03 | 0.125 | 0.06 | 0.06 | 1 | 0.25 | 4 | 4 | < 4.00 | 3.22 | > 100 | 42.6 | < 4.00 | 35.4 |
| Cc1nc(-c2ccc(SSC(C)(C)C)cc2)ncc1C(=O)N[C@@H](CCN)C(=O)N(C)[C@@H]1C(=O)N[C@@H](C)C(=O)N[C@H](C(=O)NCC#N)Cc2ccc(OCCN)c(c2)-c2cc1ccc2OCCN.O=C(O)C(F)(F)F.O=C(O)C(F)(F)F.O=C(O)C(F)(F)F.O=C(O)C(F)(F)F | ≤ 0.03 | ≤ 0.03 | ≤ 0.03 | ≤ 0.03 | ≤ 0.03 | ≤ 0.03 | 0.25 | 0.5 | 4 | 4 | < 4.00 | -1.65 | > 100 | 51.5 | < 4.00 | 38.2 |
| Cc1nc(-c2ccc(CSSC(C)(C)C)cc2)ncc1C(=O)N[C@@H](CCN)C(=O)N(C)[C@@H]1C(=O)N[C@@H](C)C(=O)N[C@H](C(=O)O)Cc2ccc(OCCN)c(c2)-c2cc1ccc2OCCN.O=C(O)C(F)(F)F.O=C(O)C(F)(F)F.O=C(O)C(F)(F)F.O=C(O)C(F)(F)F | ≤ 0.03 | ≤ 0.03 | ≤ 0.03 | ≤ 0.03 | ≤ 0.03 | ≤ 0.03 | 0.25 | 0.5 | 4 | 32 | < 4.00 | -0.02 | > 100 | 36.6 | < 4.00 | 27.7 |
| Cc1nc(-c2ccc(CSSC(C)(C)C)cc2)ncc1C(=O)N[C@@H](CCN)C(=O)N(C)[C@@H]1C(=O)N[C@@H](C)C(=O)N[C@H](C(=O)NCC#N)Cc2ccc(OCCN)c(c2)-c2cc1ccc2OCCN.O=C(O)C(F)(F)F.O=C(O)C(F)(F)F.O=C(O)C(F)(F)F.O=C(O)C(F)(F)F | ≤ 0.03 | ≤ 0.03 | ≤ 0.03 | ≤ 0.03 | ≤ 0.03 | ≤ 0.03 | 0.125 | 0.125 | 4 | 4 | < 4.00 | 28.4 | > 100 | 43 | < 4.00 | 34.6 |
| CSSC(C)(C)c1ccc(-c2ncc(C(=O)N[C@@H](CCN)C(=O)N(C)[C@@H]3C(=O)N[C@@H](C)C(=O)N[C@H](C(=O)NCC#N)Cc4ccc(OCCN)c(c4)-c4cc3ccc4OCCN)c(C)n2)cc1.O=C(O)C(F)(F)F.O=C(O)C(F)(F)F.O=C(O)C(F)(F)F.O=C(O)C(F)(F)F | ≤ 0.03 | ≤ 0.03 | ≤ 0.03 | ≤ 0.03 | ≤ 0.03 | ≤ 0.03 | 1 | 0.25 | 8 | 8 | < 4.00 | -12.6 | > 100 | 48.1 | < 4.00 | 39.1 |
| Cc1nc(-c2ccc(C(C)(C)C)cc2)ncc1C(=O)N[C@@H](CCN)C(=O)N(C)[C@@H]1C(=O)N[C@@H](C)C(=O)N[C@H](C(=O)O)Cc2ccc(OCCN)c(c2)-c2cc1ccc2OCCN.O=C(O)C(F)(F)F.O=C(O)C(F)(F)F.O=C(O)C(F)(F)F.O=C(O)C(F)(F)F | 0.06 | 0.125 | 0.5 | 0.06 | 0.25 | 0.125 | 8 | 1 | > 64 | > 64 |  |  |  |  |  |  |
| Cc1nc(-c2ccc(C(C)(C)C)cc2)ncc1C(=O)N[C@@H](CCN)C(=O)N(C)[C@@H]1C(=O)N[C@@H](C)C(=O)N[C@H](NC(=O)NC#N)Cc2ccc(OCCN)c(c2)-c2cc1ccc2OCCN.O=C(O)C(F)(F)F.O=C(O)C(F)(F)F.O=C(O)C(F)(F)F.O=C(O)C(F)(F)F | 32 | 64 | 64 | 64 | 64 | 64 | > 64 | > 64 | > 64 | > 64 |  |  |  |  |  |  |
| Cc1nc(-c2ccc(C(C)(C)C)cc2)ncc1C(=O)N[C@@H](CCN)C(=O)N(C)[C@@H]1C(=O)N[C@@H](C)C(=O)N[C@H](NC(=O)CC#N)Cc2ccc(OCCN)c(c2)-c2cc1ccc2OCCN.O=C(O)C(F)(F)F.O=C(O)C(F)(F)F.O=C(O)C(F)(F)F.O=C(O)C(F)(F)F | 64 | 64 | 64 | 32 | 64 | 64 | > 64 | > 64 | > 64 | > 64 |  |  |  |  |  |  |
| Cc1nc(-c2ccc(CSSC(C)C)cc2)ncc1C(=O)N[C@@H](CCN)C(=O)N(C)[C@@H]1C(=O)N[C@@H](C)C(=O)N[C@H](C(=O)NCC#N)Cc2ccc(OCCN)c(c2)-c2cc1ccc2OCCN.O=C(O)C(F)(F)F.O=C(O)C(F)(F)F.O=C(O)C(F)(F)F.O=C(O)C(F)(F)F | ≤ 0.03 | 0.06 | 0.06 | 0.06 | 0.125 | 0.06 | 0.5 | 0.125 | 2 | 4 |  |  |  |  |  |  |
| Cc1nc(-c2ccc(C(C)(C)C)cc2)ncc1C(=O)N[C@@H](CCN)C(=O)N(C)[C@@H]1C(=O)N[C@@H](C)C(=O)N[C@H](C(=O)OCC#N)Cc2ccc(OCCN)c(c2)-c2cc1ccc2OCCN.O=C(O)C(F)(F)F.O=C(O)C(F)(F)F.O=C(O)C(F)(F)F.O=C(O)C(F)(F)F | 0.06 | 0.125 | 0.25 | 0.125 | 0.25 | 0.25 | 8 | 4 | > 64 | > 64 |  |  |  |  |  |  |
| Cc1nc(-c2ccc(C(C)(C)C)cc2)ncc1C(=O)N[C@@H](CCN)C(=O)N(C)[C@@H]1C(=O)N[C@@H](C)C(=O)N[C@H](C(=O)NN(C)CC#N)Cc2ccc(OCCN)c(c2)-c2cc1ccc2OCCN.Cl.Cl.Cl.Cl | 4 | 16 | 4 | 8 | 16 | 16 | > 64 | 64 | > 64 | > 64 |  |  |  |  |  |  |
